Here are results for 14 molecules from patent publication US20120115845A1, “THERAPEUTIC AGENTS” (priority 2007, published 2012).

Sequence of human GHS receptor (Q92847 whole entry): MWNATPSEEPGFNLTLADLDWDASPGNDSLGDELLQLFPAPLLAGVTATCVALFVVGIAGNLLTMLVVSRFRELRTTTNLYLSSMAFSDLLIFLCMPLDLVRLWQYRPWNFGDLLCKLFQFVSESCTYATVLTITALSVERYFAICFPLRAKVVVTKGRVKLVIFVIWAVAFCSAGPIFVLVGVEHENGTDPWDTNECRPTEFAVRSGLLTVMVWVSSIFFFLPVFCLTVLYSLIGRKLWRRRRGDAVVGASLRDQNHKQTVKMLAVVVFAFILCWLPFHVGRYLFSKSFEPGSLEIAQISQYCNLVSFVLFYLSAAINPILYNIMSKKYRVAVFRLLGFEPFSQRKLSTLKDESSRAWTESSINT

The assay concerns the target human GHS receptor (Homo sapiens, UniProt Q92847). Briefly: h bind IC50 (binding assay, Table 1). Conditions: human receptor; Table 1.
`O=C(NC(=O)c1ccccc1Cl)Nc1nc2ccc(S(=O)(=O)CCN3CCCC3)cc2s1` [Example 6, 2-Chloro-N-[[6-(2-pyrrolidin-1-ylethylsulfonyl)benzothiazol-2-yl]carbamoyl]benzamide]: the 50% inhibitory concentration (IC50) was 44.4 nM.

In the case of `O=C(NC(=O)c1ccccc1Cl)Nc1nc2ccc(S(=O)(=O)C3CCNCC3)cc2s1` [Example 176, 2-Chloro-N-[[6-(4-piperidylsulfonyl)benzothiazol-2-yl]carbamoyl]benzamide], the IC50 was 13.2 nM.

`CC(C)NCCS(=O)(=O)c1ccc2nc(NC(=O)NC(=O)c3cc(-n4cccc4)ccc3I)sc2c1` [Example 84, 2-Iodo-N-(6-(2-(isopropylamino)ethylsulfonyl)benzothiazol-2-ylcarbamoyl)-5-(1H-pyrrol-1-yl)benzamide] yielded an IC50 of 7.1 nM.

Molecule `CN1CCN(CCS(=O)(=O)c2ccc3nc(NC(=O)NC(=O)c4ccccc4Cl)sc3c2)CC1` [Example 23, 2-Chloro-N-[[6-[2-(4-methylpiperazin-1-yl)ethylsulfonyl]benzothiazol-2-yl]carbamoyl]benzamide] showed an IC50 of 82.7 nM.

On to `O=C(NC(=O)c1ccccc1Cl)Nc1nc2ccc(S(=O)(=O)CCCN3CCC(F)(F)C3)cc2s1` [Example 154, 2-Chloro-N-[[6-[3-(3,3-difluoropyrrolidin-1-yl)propylsulfonyl]benzothiazol-2-yl]carbamoyl]benzamide], for which the half-maximal inhibitory concentration (IC50) is 117 nM.

Molecule `CC(NCCS(=O)(=O)c1ccc2nc(NC(=O)NC(=O)c3ccccc3Cl)sc2c1)c1ccccc1` (centres unmarked) [Example 20, 2-Chloro-N-[[6-[2-(1-phenylethylamino)ethylsulfonyl]benzothiazol-2-yl]carbamoyl]benzamide] returned an IC50 of 184 nM.

Molecule `CN(CCO)CCS(=O)(=O)c1ccc2nc(NC(=O)NC(=O)c3ccccc3Cl)sc2c1` [Example 11, 2-Chloro-N-[[6-[2-(2-hydroxyethyl-methyl-amino)ethylsulfonyl]benzothiazol-2-yl]carbamoyl]benzamide] gave an IC50 of 347 nM. This IC50 lies about 1.9-fold higher than the previous one.

Molecule `CCN1CCC(S(=O)(=O)c2ccc3nc(NC(=O)NC(=O)c4ccccc4Cl)sc3c2)C1` (centres unmarked) [Example 163, 2-Chloro-N-[[6-(1-ethylpyrrolidin-3-yl)sulfonylbenzothiazol-2-yl]carbamoyl]benzamide] showed an IC50 of 613 nM.

Molecule `CC(C)NCCCS(=O)(=O)c1ccc2nc(NC(=O)NC(=O)c3ccccc3Cl)sc2c1` [Example 145, 2-Chloro-N-[[6-[3-(propan-2-ylamino)propylsulfonyl]benzothiazol-2-yl]carbamoyl]benzamide] came in with an IC50 of 59.8 nM.

Molecule `CCC(C)NCCS(=O)(=O)c1ccc2nc(NC(=O)NC(=O)c3ccccc3Cl)sc2c1` (centres unmarked) [Example 12, N-[[6-[2-(Butan-2-ylamino)ethylsulfonyl]benzothiazol-2-yl]carbamoyl]-2-chloro-benzamide] had an IC50 of 179 nM.

As to `O=C(NC(=O)c1ccccc1Cl)Nc1nc2ccc(S(=O)(=O)CCCN3CCCC3)cc2s1` [Example 149, 2-Chloro-N-[[6-(3-pyrrolidin-1-ylpropylsulfonyl)benzothiazol-2-yl]carbamoyl]benzamide], the IC50 is 52.2 nM.

`O=C(NC(=O)c1ccccc1Cl)Nc1nc2ccc(S(=O)(=O)CCCN3CCC3)cc2s1` [Example 147, N-[[6-[3-(Azetidin-1-yl)propylsulfonyl]benzothiazol-2-yl]carbamoyl]-2-chloro-benzamide]: the IC50 came to 78.8 nM. This IC50 is about 1.5-fold higher than that of the molecule before.

`COCCOCCS(=O)(=O)c1ccc2nc(NC(=O)NC(=O)c3ccccc3Cl)sc2c1` [Example 42, 2-Chloro-N-[[6-[2-(2-methoxyethoxy)ethylsulfonyl]benzothiazol-2-yl]carbamoyl]benzamide] showed an IC50 of 177 nM.

Molecule `O=C(NC(=O)c1ccccc1Cl)Nc1nc2ccc(S(=O)(=O)C3CCCN(CC4CC4)C3)cc2s1` (centres unmarked) [Example 143, 2-Chloro-N-[[6-[[1-(cyclopropylmethyl)-3-piperidyl]sulfonyl]benzothiazol-2-yl]carbamoyl]benzamide] came in with an IC50 of 484 nM.
